Data: patent US20190343860A1 (Saint Louis University, priority 2016, published 2019)
Where two headings read alike, the source gives them in different places.

Legend:
mA3AR [1] = target: T1, mA3AR (Mus musculus, UniProt Q61618); assay: Radioligand binding, membranes of HEK293 cells stably expressing mA3AR; details: species m; inhibition of binding at 10 μM
T1 construct: expressed in transfected cells
T1 sequence (Q61618 1-319): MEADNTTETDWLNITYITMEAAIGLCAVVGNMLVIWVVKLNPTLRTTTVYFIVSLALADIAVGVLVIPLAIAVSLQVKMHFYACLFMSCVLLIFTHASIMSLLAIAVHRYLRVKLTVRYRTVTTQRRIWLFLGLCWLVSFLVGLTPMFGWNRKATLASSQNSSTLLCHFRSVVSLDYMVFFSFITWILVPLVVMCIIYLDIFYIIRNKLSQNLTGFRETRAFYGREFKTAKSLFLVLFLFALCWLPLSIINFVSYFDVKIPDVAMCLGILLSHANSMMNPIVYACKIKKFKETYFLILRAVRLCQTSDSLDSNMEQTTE

hA3AR = target: T2, hA3AR (Homo sapiens, UniProt P0DMS8); assay: cAMP assay, inhibition of forskolin-stimulated cAMP in hA3AR-transfected CHO cells; assay type: cell-based; details: species h; percentage of maximal effect of 5′-N-ethylcarboxamidoadenosine 43, each at 10 μM
T2 construct: expressed in transfected cells
T2 sequence (P0DMS8 1-318): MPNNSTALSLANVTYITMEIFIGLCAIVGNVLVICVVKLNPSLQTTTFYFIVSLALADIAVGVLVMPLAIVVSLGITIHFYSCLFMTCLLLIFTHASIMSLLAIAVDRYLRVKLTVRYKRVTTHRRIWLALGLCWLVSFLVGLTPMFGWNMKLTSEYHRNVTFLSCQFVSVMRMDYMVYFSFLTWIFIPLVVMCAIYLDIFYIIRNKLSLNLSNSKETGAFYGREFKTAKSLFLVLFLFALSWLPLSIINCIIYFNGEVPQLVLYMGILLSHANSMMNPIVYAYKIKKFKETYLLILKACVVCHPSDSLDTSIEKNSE

hA2AAR [2] = target: T3, hA2AAR (Homo sapiens, UniProt P29274); details: species h; inhibition of binding at 10 μM; tested in ref 26; cited from earlier work
T3 construct: expressed in transfected cells
T3 sequence (P29274 whole entry): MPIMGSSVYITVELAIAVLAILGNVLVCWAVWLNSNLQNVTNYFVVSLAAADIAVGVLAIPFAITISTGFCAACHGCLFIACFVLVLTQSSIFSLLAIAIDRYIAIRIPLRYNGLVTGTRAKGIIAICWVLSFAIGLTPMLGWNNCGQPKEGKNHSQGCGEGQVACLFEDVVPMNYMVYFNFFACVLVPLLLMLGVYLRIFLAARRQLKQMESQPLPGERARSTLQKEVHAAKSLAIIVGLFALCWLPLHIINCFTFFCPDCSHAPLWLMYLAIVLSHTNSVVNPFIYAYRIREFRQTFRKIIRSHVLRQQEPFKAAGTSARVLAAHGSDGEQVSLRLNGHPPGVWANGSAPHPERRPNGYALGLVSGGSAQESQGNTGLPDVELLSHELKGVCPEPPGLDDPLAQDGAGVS

mA2AAR = target: T4, mA2AAR (Mus musculus, UniProt Q60613); assay: Radioligand binding, membranes of HEK293 cells stably expressing mA2AAR; details: species m; inhibition of binding at 10 μM
T4 construct: expressed in transfected cells
T4 sequence (Q60613 whole entry): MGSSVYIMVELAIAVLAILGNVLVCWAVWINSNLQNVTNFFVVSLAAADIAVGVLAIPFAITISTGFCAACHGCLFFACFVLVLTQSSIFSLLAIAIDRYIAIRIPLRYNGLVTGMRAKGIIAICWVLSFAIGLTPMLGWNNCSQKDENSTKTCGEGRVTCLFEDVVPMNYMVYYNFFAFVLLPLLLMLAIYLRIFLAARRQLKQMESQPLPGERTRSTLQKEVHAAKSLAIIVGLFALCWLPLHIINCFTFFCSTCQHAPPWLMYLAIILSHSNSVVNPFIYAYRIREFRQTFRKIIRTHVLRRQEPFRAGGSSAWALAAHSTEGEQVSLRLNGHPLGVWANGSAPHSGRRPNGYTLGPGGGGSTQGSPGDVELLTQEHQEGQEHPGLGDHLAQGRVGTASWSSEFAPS

hA1AR [3] = target: T5, hA1AR (Homo sapiens, UniProt P30542); details: species h; inhibition of binding at 10 μM; tested in ref 26; cited from earlier work
T5 construct: expressed in transfected cells
T5 sequence (P30542 1-326): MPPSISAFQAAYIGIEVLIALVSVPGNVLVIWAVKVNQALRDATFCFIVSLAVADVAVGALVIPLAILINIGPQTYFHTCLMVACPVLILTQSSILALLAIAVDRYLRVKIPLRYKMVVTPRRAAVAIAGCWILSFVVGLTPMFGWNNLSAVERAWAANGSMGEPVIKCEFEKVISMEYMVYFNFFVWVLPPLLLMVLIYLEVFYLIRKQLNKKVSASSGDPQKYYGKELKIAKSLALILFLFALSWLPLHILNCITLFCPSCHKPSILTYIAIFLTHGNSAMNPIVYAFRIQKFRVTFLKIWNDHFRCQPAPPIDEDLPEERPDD

mA1AR = target: T6, mA1AR (Mus musculus, UniProt Q60612); assay: Radioligand binding, membranes of HEK293 cells stably expressing mA1AR; details: species m; inhibition of binding at 10 μM
T6 construct: expressed in transfected cells
T6 sequence (Q60612 1-326): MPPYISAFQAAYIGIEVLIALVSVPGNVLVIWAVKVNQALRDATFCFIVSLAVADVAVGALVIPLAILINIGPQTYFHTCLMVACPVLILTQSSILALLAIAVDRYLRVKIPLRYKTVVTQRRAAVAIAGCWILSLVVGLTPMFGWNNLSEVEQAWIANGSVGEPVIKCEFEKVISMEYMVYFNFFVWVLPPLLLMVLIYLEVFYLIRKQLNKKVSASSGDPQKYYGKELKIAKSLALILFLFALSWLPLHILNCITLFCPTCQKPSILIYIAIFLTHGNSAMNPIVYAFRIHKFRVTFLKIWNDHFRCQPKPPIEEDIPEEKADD

mA3AR [4] = target: T1, mA3AR; assay: cAMP assay, inhibition of forskolin-stimulated cAMP in mAR-transfected HEK cells; assay type: cell-based; details: species m; percentage of maximal effect of 1a, from concentration-effect curves
hA1AR [5] = target: T5, hA1AR; assay: Radioligand binding, membranes of CHO cells stably expressing hA1AR; details: species h; inhibition of binding at 10 μM
hA2AAR [6] = target: T3, hA2AAR; assay: Radioligand binding, membranes of HEK293 cells stably expressing hA2AAR; details: species h; inhibition of binding at 10 μM
[7] = system: intraepidermal nerve fibers (IENFs); details: rat, in vivo
[8] = system: PNSA mitochondria (saphenous nerve explants); assay: ATP production in saphenous nerve explants after direct drug application; set-up: species or system rat; details: 1 μM
Procedure: FIG. 14. […] Mean±SEM, n=6/group *P=0.019 vs, t-test
ATP assays. Saphenous nerves were harvested from rats 25 days after the initiation of chemotherapy treatments, then minced & teased apart as previously described. Saphenous nerve explants were transferred to MiR05 respiratory buffer & baseline ATP samples were taken after 5 min or after 15 min treatment with MRS5980 or vehicle. ADP (1 mM), glutamate (5 mM), succinate (5 mM), […] (5 mM) were added for 5 min & samples were taken for ATP. ATP levels were measured by a flash luciferin-luciferase assay (Promega Enliten ATP Assay; Promega, Madison, Wis.) & normalized to citrate synthase activity (Sigma, St Louis, Mo.) in explants homogenates.

[9] = system: isolated mouse liver mitochondria; assay: Mitochondrial membrane potential (ΔΨm), TMRM flow cytometry of isolated mitochondria; assay type: biochemical; details: n=1
Procedure: FIG. 12. MRS5980 reduces ADP-dependent dissipation of mitochondrial membrane potential (ΔΨm). ADP (1 mM) in the presence of Complex I and II substrates reduced the ΔΨm in isolated mouse liver mitochondrial (decreased TMRM signal). The degree of dissipation ΔΨm was lessened with MRS5980 (10 μM) treatment prior to adding ADP n=1, 10,000 mitochondria counted/sample.
FIG. 13. MRS5980 reduces calcium-dependent dissipation of mitochondrial ΔΨm. The addition of Ca^2+ (0.5-15 μM) to isolated mouse liver mitochondria reduced the mitochondria ΔΨm in (decreased TMRM signal). The mitochondrial ΔΨιη was sustained with MRS5980 (10 μM) treatment. n=1, 10,000 mitochondria counted/sample.
Mitochondrial membrane potential (ΔΨm). Mitochondria from mouse & rat liver were isolated for flow cytometry as previously described. Mitochondria (57 μg) were loaded with Mitotracker DeepRed FM (50 nM) & TMRM (100 nM). Mitochondria were then treated for 5 min with MRS5980 (10 μM) or vehicle then stimulated with ADP (1 mM) or Ca^2+ (0-15 μM) for 1 min. Mitochondria (10,000 counts) were detected using Mitotracker Deep Red FM (Abs/EM 644/665 nm) signal & the ΔΨm state determined by the dynamic median fluorescence signal of TMRM using a FACSCanto II (BD Biosciences).

[10] = system: intraepidermal nerve fibers (IENFs); assay: Incidence of intraepidermal nerve fibers (IENFs) in chemotherapy-treated rats; details: chemotherapeutic alone; p<0.05 vs. Naive
[11] = Oxaliplatin-induced mechano-hypersensitivity (paw withdrawal threshold, von Frey); assay type: in vivo, rat; details: oxaliplatin 5 days, 10 mg/kg cumulative dose
Description: Mean±SEM, n=6/group, ANOVA with Bonferroni comparisons. *P<0.05 vs. day 0; #P<0.05 vs. vehicle &†P<0.05 vs. Oxaliplatin.

Compound	% efficacy (hA3AR) [%]	% inhibition A2A (hA2AAR [2])	% inhibition A2A (mA2AAR)	% inhibition A1 (hA1AR [3])	% inhibition A1 (mA1AR)	also measured
O[C@@H]1[C@H](O)[C@@H]2C[C@@H]2[C@H]1n1cnc2c(NCC(c3ccccc3)c3ccccc3)nc(C#Cc3ccccc3Cl)nc21 [Cmpd 15]	2.6 ± 1.3	(22% ± 2%)	(16% ± %)	(26% ± 4%)	(23% ± 1%)	% inhibition A3 (mA3AR [1]): (54 ± 3%)
CNC(=O)C12CC1C(n1cnc3c(NCc4cccc(Cl)c4)nc(C#Cc4cccc(S(=O)(=O)O)c4)nc31)C(O)C2O (stereo not drawn) [Cmpd 7]	98.2 ± 6.7		(1% ± 1%)		(15% ± 2%)	% efficacy (mA3AR [4]): 89.3 ± 7.1%; % inhibition A1 (hA1AR [5]): (16% ± 3%); % inhibition A2A (hA2AAR [6]): (7% ± 6%)
CCNc1nc(C#Cc2ccccc2Cl)nc2c1ncn2[C@H]1[C@H](O)[C@H](O)[C@@H]2C[C@@H]21 [Cmpd 10]	7.0 ± 5.2	(17% ± 6%)	(11% ± 1%)	(25% ± 11%)	(47% ± 8%)	% inhibition A3 (mA3AR [1]): (50% ± 9%)
CC(=O)O[C@H]1C(=O)[C@@]2(C)[C@H]([C@H](OC(=O)c3ccccc3)[C@]3(O)C[C@H](OC(=O)[C@H](O)[C@@H](NC(=O)c4ccccc4)c4ccccc4)C(C)=C1C3(C)C)[C@]1(OC(C)=O)CO[C@@H]1C[C@@H]2O [paclitaxel]						Incidence of IENFs vs. Naive rats [7]: statistically significantly fewer IENFs
CNC(=O)[C@@]12C[C@@H]1[C@@H](n1cnc3c(NCc4cccc(Cl)c4)nc(C#Cc4ccccc4)nc31)[C@H](O)[C@@H]2O [Cmpd 5]	101 ± 5.9	(27% ± 3%)	(2% ± 1%)	(20% ± 3%)	(50% ± 5%	
O[C@@H]1[C@H](O)[C@@H]2C[C@@H]2[C@H]1n1cnc2c(NCc3cccc(Cl)c3)nc(C#Cc3ccccc3)nc21 [Cmpd 11]	13.8 ± 5.1			(37% ± 4%)		
CNC(=O)[C@@]12C[C@@H]1[C@@H](n1cnc3c(NC)nc(C#Cc4ccc(Cl)s4)nc31)[C@H](O)[C@@H]2O [MRS5980]						ATP production following stimulation of Complex I and II ([8]; explants from oxaliplatin-treated rats, day 25): reverses oxaliplatin-induced deficiencies in ATP production; ATP production following stimulation of Complex I and II ([8]; explants from vehicle-treated rats): modestly enhanced ATP production; ADP-dependent dissipation of mitochondrial membrane potential (ΔΨm) ([9]; 10 μM prior to ADP (1 mM)): lessened; Calcium-dependent dissipation of mitochondrial ΔΨm ([9]; 10 μM, Ca2+ 0.5-15 μM): sustained
CCNc1nc(C#Cc2ccccc2)nc2c1ncn2[C@H]1[C@H](O)[C@H](O)[C@@H]2C[C@@H]21 [Cmpd 9]	0.8 ± 5.2	(42% ± 4%)	(49% ± 2%)	(36% ± 4%)	(49% ± 6%)	
O[C@@H]1[C@H](O)[C@@H]2C[C@@H]2[C@H]1n1cnc2c(NCc3cccc(Cl)c3)nc(C#Cc3cccc(Cl)c3)nc21 [Cmpd 12]	4.5 ± 4.9					
O[C@@H]1[C@H](O)[C@@H]2C[C@@H]2[C@H]1n1cnc2c(NCCc3ccccc3)nc(C#Cc3ccccc3)nc21 [Cmpd 14]	4.1 ± 1.2	(22% ± 5%)	(13% ± 2%)	(30% ± 8%)	(39% ± 6%)	
O=C1[O][Pt]2([NH][C@@H]3CCCC[C@H]3[NH]2)[O]C1=O [oxaliplatin, reference compound]						Incidence of IENFs vs. Naive rats [10]: statistically significantly fewer IENFs; Mechano-hypersensitivity (Paw Withdrawal Threshold) [11]: produces mechano-hypersensitivity
O[C@@H]1[C@H](O)[C@@H]2C[C@@H]2[C@H]1n1cnc2c(NCc3cccc(Cl)c3)nc(C#Cc3ccc(-c4ccccc4)cc3)nc21 [Cmpd 13]	3.5 ± 3.2	(12% ± 7%)	(0%)	(48% ± 4%)		
CNc1nc(C#Cc2ccccc2)nc2c1ncn2[C@H]1[C@H](O)[C@H](O)[C@@H]2C[C@@H]21 [Cmpd 8]	12.6 ± 4.0	(18% ± 3%)	(8% ± 3%)	(18% ± 1%)		
CNC(=O)C12CC1C(n1cnc3c(NCCc4ccccc4)nc(C#Cc4ccccc4)nc31)C(O)C2O (stereo not drawn) [Cmpd 17]	105.3 ± 9.8		(1% ± 1%)		(25% ± 5%)	% efficacy (mA3AR [4]): 114.6 ± 14.6%; % inhibition A1 (hA1AR [5]): (11% ± 3%); % inhibition A2A (hA2AAR [6]): (32% ± 4%)
CNC(=O)C12CC1C(n1cnc3c(NCc4cccc(Cl)c4)nc(C#Cc4ccc(S(=O)(=O)O)cc4)nc31)C(O)C2O (stereo not drawn) [Cmpd 6]	98.6 ± 5.7		(14% ± 4%)			% efficacy (mA3AR [4]): 95.7 ± 19.1%; % inhibition A2A (hA2AAR [6]): (23% ± 3%)
O=S(=O)(O)c1ccc(CCNc2nc(C#Cc3ccccc3)nc3c2ncn3[C@H]2[C@H](O)[C@H](O)[C@@H]3C[C@@H]32)cc1 [Cmpd 16]	7.2		(1% ± 2%)		(18% ± 2%)	% inhibition A1 (hA1AR [5]): (10% ± 5%); % inhibition A2A (hA2AAR [6]): (15% ± 3%)
